Test results from publication PMC3827738 (Biochimica et biophysica acta, 2010).

Target: cytochrome bo3 (cbo3), ubiquinol oxidase (Escherichia coli, UniProt P0ABI8)
Format: biochemical

Chain of cytochrome bo3 (cbo3), ubiquinol oxidase (P0ABI8 whole entry): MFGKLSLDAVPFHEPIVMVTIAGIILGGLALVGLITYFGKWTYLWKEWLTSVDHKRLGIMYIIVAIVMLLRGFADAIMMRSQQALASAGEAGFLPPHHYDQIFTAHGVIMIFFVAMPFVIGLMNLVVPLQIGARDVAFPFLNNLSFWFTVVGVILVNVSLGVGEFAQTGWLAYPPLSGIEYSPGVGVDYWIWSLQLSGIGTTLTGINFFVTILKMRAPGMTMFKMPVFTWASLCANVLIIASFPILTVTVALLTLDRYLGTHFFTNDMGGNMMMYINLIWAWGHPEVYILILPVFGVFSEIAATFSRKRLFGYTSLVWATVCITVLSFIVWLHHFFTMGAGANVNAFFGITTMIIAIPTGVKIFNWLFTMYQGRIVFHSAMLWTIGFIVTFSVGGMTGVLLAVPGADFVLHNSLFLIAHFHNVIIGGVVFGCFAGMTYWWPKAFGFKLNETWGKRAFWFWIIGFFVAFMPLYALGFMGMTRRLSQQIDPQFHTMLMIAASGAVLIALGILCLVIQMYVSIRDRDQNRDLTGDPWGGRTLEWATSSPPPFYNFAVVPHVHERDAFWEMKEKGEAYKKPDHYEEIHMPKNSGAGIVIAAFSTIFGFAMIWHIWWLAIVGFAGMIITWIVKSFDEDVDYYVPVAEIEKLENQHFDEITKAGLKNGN
Chain of cytochrome bo3 (cbo3), ubiquinol oxidase (P0ABJ1 25-315 partner): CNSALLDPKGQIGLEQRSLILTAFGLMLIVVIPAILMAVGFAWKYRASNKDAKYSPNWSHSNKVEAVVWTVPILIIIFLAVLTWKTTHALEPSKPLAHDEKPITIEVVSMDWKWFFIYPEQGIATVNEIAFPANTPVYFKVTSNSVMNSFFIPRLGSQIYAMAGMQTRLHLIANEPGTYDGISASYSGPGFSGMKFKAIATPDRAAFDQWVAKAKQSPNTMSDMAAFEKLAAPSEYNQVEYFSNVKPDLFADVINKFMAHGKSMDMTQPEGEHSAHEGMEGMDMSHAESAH
Chain of cytochrome bo3 (cbo3), ubiquinol oxidase (P0ABJ3 whole entry partner): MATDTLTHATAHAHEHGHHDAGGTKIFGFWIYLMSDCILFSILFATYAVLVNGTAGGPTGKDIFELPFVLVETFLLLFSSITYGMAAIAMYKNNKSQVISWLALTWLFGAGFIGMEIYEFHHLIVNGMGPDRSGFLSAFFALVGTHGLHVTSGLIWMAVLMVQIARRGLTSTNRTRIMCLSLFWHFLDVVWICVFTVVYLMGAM
Chain of cytochrome bo3 (cbo3), ubiquinol oxidase (P0ABJ6 whole entry partner): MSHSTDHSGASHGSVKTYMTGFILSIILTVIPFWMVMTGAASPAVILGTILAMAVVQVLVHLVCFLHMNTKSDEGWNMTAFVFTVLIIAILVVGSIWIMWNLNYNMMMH

In the case of `CCCCCCCc1cc(O)c2ccccc2[n+]1[O-]` [2-n-Heptyl-4-hydroxyquinoline N-oxide], the IC50 is reported as 28.7 ± 2.1 µM.
